From patent US20260176289A1, “SMALL MOLECULE INHIBITORS OF KRAS PROTEINS” (Merck Sharp & Dohme LLC, priority 2022, published 2026) come the findings set out here.

Assay type in all cases: biochemical
The target in test [1] is KRAS-WT (Homo sapiens, UniProt P01116). In words: SOS-catalyzed nucleotide exchange assay (Procedure A, TR-FRET), KRAS-WT. The conditions noted are these: nucleotide exchange, read-out: KRAS WT GNE IC50. In short, it runs like this:
(§1)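 Biotinylated RAS (KRAS-G12C carries C51S/C80L/C118S; others WT background) preloaded with Bodipy-GDP plus Tb-streptavidin, preincubated with compound 60 min at RT, then human SOS and 3 mM GTP added. Final RAS/SOS: G12C 3 nM/40 nM, 60 min; WT 1 nM/40 nM, 60 min; G12V 1.25 nM/160 nM, 90 min; NRAS 1.25 nM/40 nM, 60 min. TR-FRET 520/495 ratio normalized to DMSO and saturating inhibitor; 10-point curves fit four-parameter logistic.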
Background: TR-FRET usually uses a lanthanide donor and a delayed reading to cut background.

Test [2] has as its target HRAS (Homo sapiens, UniProt P01112). In words: SOS-catalyzed nucleotide exchange assay (Procedure A, TR-FRET), HRAS. The conditions noted are these: read-out: HRAS GNE IC50. In short, it runs like this: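 Signal ratio (520/495 nm, excitation 340 nm) reports Bodipy-GDP retention on biotinylated RAS after SOS-catalyzed exchange with 3 mM GTP. SOS was 40 nM, except 160 nM for G12V. Room-temperature exchange lasted 60 min (90 min for G12V), following a 60 min compound preincubation.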

For test [3], the target named is KRAS-G12C (C51S/C80L/C118S) (Homo sapiens, UniProt P01116, C118S/C51S/C80L/G12C). In words: SOS-catalyzed nucleotide exchange assay (Procedure A, TR-FRET), KRAS-G12C. The following applies: nucleotide exchange, Procedure A; read-out: KRAS G12C GNE IC50. In outline:
as §1

Test [4] has as its target KRAS-G13D (Homo sapiens, UniProt P01116, G13D). In words: SOS-catalyzed nucleotide exchange assay (Procedure A, TR-FRET), KRAS-G13D. The conditions noted are these: nucleotide exchange, Procedure A; read-out: KRAS G13D GNE IC50.

Sequence of KRAS-G13D (P01116 with tags, fused parts or gaps isoform P01116-2 G13D): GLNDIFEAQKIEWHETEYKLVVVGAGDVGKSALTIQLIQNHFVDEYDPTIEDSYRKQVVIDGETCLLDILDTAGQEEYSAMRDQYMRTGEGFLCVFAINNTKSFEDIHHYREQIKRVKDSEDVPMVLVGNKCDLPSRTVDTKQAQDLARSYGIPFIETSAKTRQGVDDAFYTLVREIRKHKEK
Sequence of HRAS (P01112 with tags, fused parts or gaps): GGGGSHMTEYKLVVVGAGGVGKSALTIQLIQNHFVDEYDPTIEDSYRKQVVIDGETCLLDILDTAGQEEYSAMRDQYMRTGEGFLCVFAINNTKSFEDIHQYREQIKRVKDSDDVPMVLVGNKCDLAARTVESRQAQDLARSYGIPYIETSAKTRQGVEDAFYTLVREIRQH
Sequence of KRAS-G12C (C51S/C80L/C118S) (P01116 with tags, fused parts or gaps isoform P01116-2 G12C/C51S/C80L/C118S): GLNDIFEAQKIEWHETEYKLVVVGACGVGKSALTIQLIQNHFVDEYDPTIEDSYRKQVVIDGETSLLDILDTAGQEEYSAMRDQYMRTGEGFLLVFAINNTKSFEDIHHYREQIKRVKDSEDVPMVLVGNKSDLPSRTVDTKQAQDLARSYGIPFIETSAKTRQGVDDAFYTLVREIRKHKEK
Sequence of KRAS-WT (P01116 with tags, fused parts or gaps isoform P01116-2): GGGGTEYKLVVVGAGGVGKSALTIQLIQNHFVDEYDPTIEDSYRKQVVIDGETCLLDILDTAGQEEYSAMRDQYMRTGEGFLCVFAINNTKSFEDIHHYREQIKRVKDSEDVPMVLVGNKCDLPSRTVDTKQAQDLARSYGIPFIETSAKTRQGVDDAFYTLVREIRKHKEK

What is called IC50 is the concentration that gives 50% inhibition. Consider `C#Cc1c(F)ccc2cc(O)cc(-c3nccc4c5c(N6CCOC[C@@](C)(O)C6)nc(OC[C@@]67CCCN6C[C@H](F)C7)nc5n(C)c34)c12` [Ex-18, (S)-4-(8-(8-ethynyl-7-fluoro-3-hydroxynaphthalen-1-yl)-2-(((2R,7aS)-2-fluorotetrahydro-1H-pyrrolizin-7a(5H)-yl)methoxy)-9-methyl-9H-pyrido[4′,3′:4,5]pyrrolo[2,3-d]pyrimidin-4-yl)-6-methyl-1,4-oxazepan-6-ol], for which the IC50 in test [1] was determined as 1.46 nM; in test [2] it was 1820 nM; in test [3], 10.5 nM; in test [4], 2.66 nM.
